Results from patent US10781262B2, “Combination therapy of T cell activating bispecific antigen binding molecules and PD-1 axis binding antagonists” (Hoffmann-La Roche Inc., priority 2014, dated 2020).

What was measured:
[1] = tested on: CFSE-labelled Skov3 cells; assay: Killing assay with tumor samples; assay type: cell-based, human
Method: To determine the FolR1-TCB induced tumor cell killing, 3×10^4 CFSE-labelled Skov3 cells were cocultured with tumor samples in the presence or absence of FolR1-TCB at a concentration of 2 nM for 24h in 96-well flat bottom cell culture plates. The E:T ratio (E: effector CD45^+CD3^+ cells; T: target FolR1^+ cells from tumor and added Skov3 cells) was adjusted to 1:1 in each well and the cell number of the added tumor samples was calculated for each sample according to prior characterization by flow cytometry. Cell death of Skov3 cells was determined by flow cytometry by measuring activated caspase 3 and the live/dead marker Live/Dead-near-IR. The assay was performed in triplicates. The FolR1-TCB mediated killing was calculated according to the following equation: % of specific killing=100−[(% of Skov3 live cells in FolR1-TCB treated sample/% of Skov3 live cells in untreated sample)×100].
To compare the FolR1-TCB-induced killing capacity of T-cells between tumor samples, and to exclude additional factors suppressing T-cell functionality, such as expression of PD-L1 on the tumor cells, we exogenously added CFSE-labeled FolR1^+ Skov3 cells to the tumor digests and adjusted the E:T ratio to 1:1, essentially as described above. We then measured the FolR1-TCB-induced killing of CFSE-labeled Skov3 cells, which allowed us to also include FolR1^− tumor samples into the analysis. […]

SKOV3 cells = assay: T cell mediated killing (LDH release); assay type: cell-based, human; conditions: SKOV3 and HT-29 cells
Method: (§1) FIGS. 7A-L depict graphs summarizing T cell mediated killing of HT-29 and SKOV3 cells. FolR1 TCBs were used to test T cell mediated killing of HT-29 and SKOV3 tumor cells and upregulation of activation marker on T cells upon killing. […] DP47 TCB was included as negative control. After 48 h incubation upregulation of the activation marker CD25 and CD69 on CD8 T cells and CD4 T cells upon killing of SKOV3 (FIGS. 7E-H) or HT-29 (FIG. 7I-L) tumor cells was assessed by flow cytometry.
(§2) Overall killing of SKOV3 cells was higher compared to HT-29 which reflects the higher expression levels of FolR1 on SKOV3 cells (FIGS. 7A-D). In line with this, a strong upregulation of the activation marker CD25 and CD69 on CD4^+ T cells and CD8^+ T cells was detected. Activation of T cells was very similar in the presence of SKOV3 cells and HT-29 cells.

[2] = tested on: CD4 and CD8 T cells with SKOV3 cells; assay: T cell activation upon killing (CD25, CD69, flow cytometry); assay type: cell-based, human; conditions: SKOV3 and HT-29 cells
Method: as §1, §2

[3] = tested on: T cells in FolR1 positive tumor digests or malignant effusions; assay: Ex vivo treatment of tumor samples with FolR1-TCB (T cell activation); assay type: cell-based, human
Method: FolR1 positive tumor digests or malignant effusions were thawed, washed and plated in 96-well flat bottom cell culture plates (BD Falcon) with a density of 3×10^5 cells/200 μl/well in complete medium (DMEM+Sodium Pyruvate (1 mM)+MEM non essential AA (1×)+L-Glutamin (2 mM)+Penicillin/Streptomycin ([…])+2-Mercaptoethanol ([…])+Ciproxin (1 mg/ml)+10% human Serum). The samples were cultured in the presence or absence of FolR1-TCB or DP47 TCB at a concentration of 2 nM for 24h. Activation of CD8+ and CD4^+ T cells (CD45^+CD3+) upon FolR1-TCB treatment was determined by multicolor flow cytometry by measuring the expression of the cell surface markers CD25, CD69, CD137, ICOS, PD-1 and Tim-3. Furthermore the expression of granzyme B and IFN-γ was determined by intracellular staining.
To determine FolR1-TCB induced T cell activation, tumor samples were cultured in the presence or absence of FolR1-TCB or the control TCB DP-47. Then, T cells were characterized by multicolor flow cytometry for expression of activation markers and T cell effector functions, as described above. […] FolR1-TCB-induced perforin secretion was highly variable in TILs, and severely impaired in a subset of patients (FIG. 12N).

[4] = tested on: FolR1 expressing tumor cells and FolR1 negative cell line MKN-45; assay: Flow cytometry binding to tumor cells with different FolR1 expression levels; parameters: species or system human
Text: FIGS. 6A-E depict graphs summarizing binding of FolR1 IgGs to cells with different FolR1 expression levels. […] DP47 IgG was included as isotype control and MKN-45 were included as FolR1 negative cell line.
The used panel of tumor cells contains FolR1 high, intermediate and low expressing tumor cells and a FolR1 negative cell line.
The amount of bound construct is proportional to the FolR1 expression level and there is still good binding of the constructs to the FolR1 low cell line HT-29 detectable. […] DP47 TCB is an untargeted TCB and was prepared as described in WO2014/131712.

[5] = tested on: CD8^+ T-cells with FolR1^+ ovarian cancer cell line Skov3; assay: PBMCs from healthy donors co-cultured with Skov3 cells, FolR1-TCB; assay type: cell-based, human; conditions: 0.6 pM to 2 nM for 24 h
Method: FIGS. 40A-C show activation of CD8^+ T-cells upon exposure to increasing concentrations of FolR1-TCB. PBMCs were co-cultured with Skov3 cells for 24 h in the presence or absence of FolR1-TCB or the unspecific control DP-47-TCB. […] Shaded histogram: isotype control; open histogram: anti-FolR1-antibody. FIG. 40B: The expression of the activation markers CD25, CD137, and ICOS on CD8^+ T-cells was determined by flow cytometry.
To assess the effect of FolR1-TCB on T-cell activation peripheral blood mononuclear cells (PBMCs) from healthy donors were co-cultured with the FolR1^+ ovarian cancer cell line Skov3 (FIG. 40A). […] In addition, T-cells secreted IL-2, IFN-γ, and TNF.

[6] = tested on: T cells in EpCAM positive tumor digests or malignant effusions; assay: Ex vivo treatment of tumor samples with catumaxomab; assay type: cell-based, human; conditions: 10 ng/ml, 24h; 4 NSCLC tumor digests
Method: The trifunctional TCB catumaxomab (Removab®) was obtained from Fresenius. The experimental conditions were similar as indicated above for FolR1-TCB. Briefly, EpCAM positive tumor digests or malignant effusions were cultured in the presence or absence of catumaxomab at a concentration of 10 ng/ml for 24h. Analysis of CD8÷ and CD4^+ positive T cells (CD45^+CD3+) was performed as described above.
To determine to which extent catumaxomab induces T cell activation and to confirm the findings described above using a second, independent T cell bispecific molecule, 4 tumor digests from patients with NSCLC were exposed to catumaxomab, a trifunctional bispecific antibody recognizing CD3 on T cells and EpCAM on tumor cells. Then, T cells were characterized by flow cytometry for expression of activation markers and T cell effector functions (FIG. 17A-D). […] Accordingly, the baseline expression of inhibitory receptors differed between the patients (FIG. 17E-H).

[7] = tested on: T cells in FolR1^+ tumor digests or malignant effusions; assay: FolR1-TCB with PD-1 blockade in tumor digests or malignant effusions; assay type: cell-based, human; conditions: combination with FolR1-TCB
Method: FIG. 38A-D: FolR1^+ tumor digests or malignant effusions were cultured for 24 h with FolR1-TCB in the presence or absence of a PD-1 blocking antibody. […] The increase in cytokine secretion upon combined FolR1-TCB and anti-PD-1 treatment compared with FolR1-TCB alone was determined in PD-1^hi scarce and abundant tumors. FIG. 38E: Tumor digests or malignant effusions were co-cultured with exogenously added fluorescently labeled Skov3 cells at an E:T ratio of 1:1 for 24 h in the presence or absence of a PD-1 blocking antibody and FolR1-TCB. The increase in specific killing by the anti-PD-1 antibody was compared in PD-1^hi scarce and abundant tumors. p-values were calculated using the unpaired Mann-Whitney test.
As the level of PD-1 expression on TILs correlates with the efficacy of FolR1-TCB, we analyzed whether blockade of the PD-1/PD-L1 axis in combination with FolR1-TCB treatment might be able to restore T-cell function.

T cells in tumor digests = assay: Polyclonal stimulation with anti-CD3/CD28 antibodies and PD-1 blockade; assay type: cell-based, human; conditions: 10 μg/ml, 24 hrs

## DP47 TCB: untargeted TCB, negative control, prepared as described in WO2014/131712
[1]
  tumor cell killing (in words): did not induce any tumor cell killing
SKOV3 cells
  T cell mediated killing (in words): does not induce any killing
[2]
  upregulation of CD25 and CD69 on T cells (in words): no significant upregulation of CD25 and CD69 on T cells
[3]
  T cell activation in tumor samples (in words): did not induce any T cell activation
[4]
  binding to panel of tumor cell lines: no binding
[5]
  activation of CD8^+ T-cells (in words): did not induce any T-cell activation

## catumaxomab
[6]
  catumaxomab induced T cell activation (in words): striking heterogeneity in catumaxomab induced T cell activation

## nivolumab: PD-1 blocking antibody
[7]; 24 h
  secretion of IFN-γ, TNF, IL-2 and perforin upon combined treatment with FolR1-TCB (in words): could be increased only in some of the PD-1^hi scarce tumors
[7]; Skov3 cells E:T 1:1
  cytotoxic tumor cell killing upon additional PD-1 blockade (in words): could neither be improved
T cells in tumor digests
  restoration of T cell effector function by PD-1 blockade (in words): could restore T cell effector function such as production and secretion of IL-2, IFN-γ and TNF-α only in some patients
